These results are taken from article PMC6272279, “Carboxylated Acyclonucleosides: Synthesis and RNase A Inhibition” (Molecules, 2015).

Data set [1] deals with T1, RNase A (Bos taurus, UniProt P61823).
T1 construct: purchased
T1 sequence (P61823 27-150): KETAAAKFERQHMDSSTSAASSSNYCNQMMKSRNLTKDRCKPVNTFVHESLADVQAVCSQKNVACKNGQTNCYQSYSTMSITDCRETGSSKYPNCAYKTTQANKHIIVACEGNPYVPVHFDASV
As to the kind of experiment: Comparative agarose gel-based assay of RNA degradation by RNase A. It counts as biochemical, Bovine. Conditions: inhibitor 0.5 mM, RNase A 1 µM, RNA 10 mg/mL. The procedure: Qualitative indication of RNase A inhibition by the synthetic inhibitors was obtained from a comparative agarose gel-based assay by monitoring the degradation of RNA by RNase A (Figure 2 and Figure 3). The most intense band observed in lane I in each gel is due to the presence of only RNA. […] These experimental observations reaffirmed our assumption that increasing the acidity of the molecules leads to an increase in the inhibitory property of the inhibitor.
Inhibition of RNase A was assayed qualitatively by the degradation of RNA in an agarose gel. In this method, 20 μL of RNase A (1 μM) was mixed with 20 μL (0.5 mM) of compounds U-ol-ol (5), C-ol-ol (16), U-acid (3), C-acid (14), U-ol-acid (8), C-ol-acid (18), U-di-acid (10), and C-di-acid (21) separately to a final volume of 50 μL and the resulting solutions incubated for 3 h. Twenty-microliter aliquots of the incubated mixtures were then mixed with 20 μL of RNA solution (10.0 mg/mL RNA, freshly dissolved in RNase free water) and incubated for another 30 min. Then 10 μL of sample buffer (containing 10% glycerol and 0.025% bromophenol blue) were added to this mixture and 15 μL from each solution were extracted and loaded onto a 1.1% agarose gel. The gel was run using a 0.04-M Tris-Acetic acid-EDTA (TAE) buffer (pH 8.0). The residual RNA was visualized by ethidium bromide staining under UV light.

In data set [2] the target is T1, RNase A. As to the kind of experiment: Inhibition kinetics with RNase A (UV, 2',3'-cCMP substrate, Lineweaver–Burk plot). The class given is biochemical, Bovine. Conditions: 0.1-M Mes-NaOH buffer pH 6.0, 0.1 M NaCl, substrate 2',3'-cCMP; mean ± SD; read-out: Inhibition constant Ki. The procedure: In order to determine the type of inhibition and the inhibition constant (Ki) values, kinetic experiments were performed with compounds U-ol-acid (8), U-di-acid (10), C-ol-acid (18), and C-di-acid (21). The competitive nature of inhibition in all the cases was apparent from the nature of the Lineweaver–Burk plots obtained from the kinetic experiments (Figure 4 and Figure S1 (SI)).
A quantitative account of RNase A inhibition by the individual inhibitors was obtained by a UV spectroscopic method described by Anderson and co-workers. The assay was performed in a 0.1-M Mes-NaOH buffer, pH 6.0 containing 0.1 M NaCl using 2',3'-cCMP as the substrate. The inhibition constants were calculated from initial velocity data using a Lineweaver–Burk plot. The slopes from the Lineweaver–Burk double reciprocal plot were plotted against the corresponding inhibitor concentrations to get inhibition constants (Ki).

The target in data set [3] is T1, RNase A. The data set can be described thus: Circular dichroism of RNase A secondary structure with inhibitor. More on the design: species or system Bovine. The settings on record: RNase A 30 µM mixed with inhibitor 30 µM, 3 h; native RNase A 22.7%. The procedure:
Inhibitors of RNase A are known to perturb the secondary structure of the enzyme upon binding. […] Therefore, the probable changes in the secondary structure of the enzyme by the inhibitors were monitored by observing the CD spectra of RNase A in the absence or presence of compounds U-di-acid (10) and C-di-acid (21) (Figure 5).
Circular Dichroism (CD) was performed in order to monitor the changes in the secondary structure of the enzyme as a result of interaction with the inhibitors. In this method, 200 µL of RNase A (30 µM) were mixed separately with 200 µL of U-di-acid (10) (30 µM) and C-di-acid (21) (30 µM) and incubated for 3 h. From the resulting solutions, an aliquot of 300 µL was used for CD measurements, taking a 1 mm path length quartz cell. The spectra were recorded in the range of 190–240 nm with a scan rate of 50 nm/min. Three scans were accumulated for each spectrum. The secondary structure was determined using an online server, DICHROWEB [46].
(In general: Circular dichroism is widely used to follow secondary structure.)

Consider `Nc1ccn(CC(=O)NCC(=O)O)c(=O)n1` [C-acid (14), [2-(4-Amino-2-oxo-2H-pyrimidin-1-yl)acetylamino] acetic acid], for which the melting point – broadly, the temperature, or range, at which the solid turns liquid – was > 200 °C.
Molecule `Nc1ccn(CC(=O)N(CC(=O)O)CC(=O)O)c(=O)n1` [C-di-acid (21), {[2-(4-Amino-2-oxo-2H-pyrimidin-1-yl)-acetyl]carboxymethylamino}acetic acid] had a melting point of 190 to 193 °C. Besides, the “RNase A inhibition, relative band intensities in agarose gel” value on RNase A [1] was “relatively more potent inhibitors”. Moreover, the Ki (usually the dissociation constant of the complex between target and ligand, obtained from inhibition or displacement) at RNase A [2] came out at 235 ± 9 µM. The “α-helix content of RNase A upon binding” value at RNase A [3] stood at 29.2%.
For the molecule `Nc1ccn(CC(=O)N(CCO)CC(=O)O)c(=O)n1` [C-ol-acid (18), [[2-(4-Amino-2-oxo-2H-pyrimidin-1-yl)acetyl]-(2-hydroxyethyl)amino] acetic acid], the “RNase A inhibition, relative band intensities in agarose gel” value on RNase A [1] is reported as “relatively more potent inhibitors”. The Ki at RNase A [2] was 356 ± 7 µM.
For the molecule `O=C(O)CN(CC(=O)O)C(=O)Cn1ccc(=O)[nH]c1=O` [U-di-acid (10), {Carboxymethyl-[2-(2,4-dioxo-3,4-dihydro-2H-pyrimidin-1-yl)acetyl]amino}acetic acid], the melting point was 118 to 120 °C. Besides, the “RNase A inhibition, relative band intensities in agarose gel” value on RNase A [1] is given as “relatively more potent inhibitors”. The Ki on RNase A [2] was 301 ± 15 µM. Further, at RNase A [3], the “α-helix content of RNase A upon binding” value is reported as 24.7%.
Take `O=C(O)CN(CCO)C(=O)Cn1ccc(=O)[nH]c1=O` [U-ol-acid (8)]: the melting point was in the range of 177 to 179 °C. Also, on RNase A [1], the “RNase A inhibition, relative band intensities in agarose gel” value is “relatively more potent inhibitors”. Moreover, the Ki at RNase A [2] worked out at 454 ± 9 µM.
